According to ChEMBL document CHEMBL5303573, “Mapping human microbiome drug metabolism by gut bacteria and their genes” (Nature, 2019):

How the values were obtained:
[1] = The drug is tested on Bifidobacterium breve strain: DSM20213 for biotransformation. The drug concentrations were measured before and after a 12-h incubation by liquid-chromatography-coupled mass spectrometry (LC–MS); conditions: 2 µM
[2] = The drug is tested on Collinsella aerofaciens strain: ATCC25986 for biotransformation. The drug concentrations were measured before and after a 12-h incubation by liquid-chromatography-coupled mass spectrometry (LC–MS); conditions: 2 µM
[3] = The drug is tested on Bacteroides caccae strain: ATCC43185 for biotransformation. The drug concentrations were measured before and after a 12-h incubation by liquid-chromatography-coupled mass spectrometry (LC–MS); conditions: 2 µM
[4] = The drug is tested on Bacteroides coprophilus strain: DSM18228 for biotransformation. The drug concentrations were measured before and after a 12-h incubation by liquid-chromatography-coupled mass spectrometry (LC–MS); conditions: 2 µM
[5] = The drug is tested on Bacteroides dorei strain: DSM17855 for biotransformation. The drug concentrations were measured before and after a 12-h incubation by liquid-chromatography-coupled mass spectrometry (LC–MS); conditions: phocaeicola dorei, 2 µM
[6] = The drug is tested on Bacteroides finegoldii strain: DSM17565 for biotransformation. The drug concentrations were measured before and after a 12-h incubation by liquid-chromatography-coupled mass spectrometry (LC–MS); conditions: 2 µM
[7] = The drug is tested on Bacteroides sp. WH2 strain: WH2 for biotransformation. The drug concentrations were measured before and after a 12-h incubation by liquid-chromatography-coupled mass spectrometry (LC–MS); conditions: bacteroides sp. wh2, 12 h, 2 µM
[8] = The drug is tested on Anaerotruncus colihominis strain: DSM17241 for biotransformation. The drug concentrations were measured before and after a 12-h incubation by liquid-chromatography-coupled mass spectrometry (LC–MS); conditions: 2 µM
[9] = The drug is tested on Dorea formicigenerans strain: ATCC27755 for biotransformation. The drug concentrations were measured before and after a 12-h incubation by liquid-chromatography-coupled mass spectrometry (LC–MS); conditions: 2 µM
[10] = The drug is tested on Eubacterium ventriosum strain: ATCC27560 for biotransformation. The drug concentrations were measured before and after a 12-h incubation by liquid-chromatography-coupled mass spectrometry (LC–MS); assay type: ADME; parameters: dose 2 uM, timepoint 0 vs 12 hours; conditions: 2 µM
[11] = The drug is tested on Ruminococcus lactaris strain: ATCC29176 for biotransformation. The drug concentrations were measured before and after a 12-h incubation by liquid-chromatography-coupled mass spectrometry (LC–MS); conditions: 2 µM
[12] = The drug is tested on Escherichia coli strain: BW25113 for biotransformation. The drug concentrations were measured before and after a 12-h incubation by liquid-chromatography-coupled mass spectrometry (LC–MS); conditions: 2 µM
[13] = bifidobacterium adolescentis, 12 h, 2 µM
Description: The drug is tested on Bifidobacterium adolescentis strain: ATCC 15703 for biotransformation. The drug concentrations were measured before and after a 12-h incubation by liquid-chromatography-coupled mass spectrometry (LC–MS)

[14] = bacteroides fragilis, 12 h, 2 µM
Description: The drug is tested on Bacteroides fragilis strain: 3397 (T10) for biotransformation. The drug concentrations were measured before and after a 12-h incubation by liquid-chromatography-coupled mass spectrometry (LC–MS)

[15] = bacteroides intestinalis, 12 h, 2 µM
Description: The drug is tested on Bacteroides intestinalis strain: DSM17393 for biotransformation. The drug concentrations were measured before and after a 12-h incubation by liquid-chromatography-coupled mass spectrometry (LC–MS)

[16] = bacteroides thetaiotaomicron, 12 h, 2 µM
Description: The drug is tested on Bacteroides thetaiotaomicron strain: 7330 for biotransformation. The drug concentrations were measured before and after a 12-h incubation by liquid-chromatography-coupled mass spectrometry (LC–MS)

[17] = parabacteroides distasonis, 12 h, 2 µM
Description: The drug is tested on Parabacteroides distasonis strain: ATCC8503 for biotransformation. The drug concentrations were measured before and after a 12-h incubation by liquid-chromatography-coupled mass spectrometry (LC–MS)

[18] = roseburia intestinalis, 12 h, 2 µM
Description: The drug is tested on Roseburia intestinalis strain: L1-82 for biotransformation. The drug concentrations were measured before and after a 12-h incubation by liquid-chromatography-coupled mass spectrometry (LC–MS)

[19] = akkermansia muciniphila, 12 h, 2 µM
Description: The drug is tested on Akkermansia muciniphila strain: ATCC BAA-835 for biotransformation. The drug concentrations were measured before and after a 12-h incubation by liquid-chromatography-coupled mass spectrometry (LC–MS)

[20] = The drug is tested on Ruminococcus torques strain: ATCC27756 for biotransformation. The drug concentrations were measured before and after a 12-h incubation by liquid-chromatography-coupled mass spectrometry (LC–MS); assay type: ADME; parameters: dose 2 uM, timepoint 0 vs 12 hours; conditions: 2 µM

Bacterial Biotransformation [1] | Bacterial Biotransformation [2] | Bacterial Biotransformation [3] | Bacterial Biotransformation [4] | Bacterial Biotransformation [5] | Bacterial Biotransformation [6] | Bacterial Biotransformation [7] | Bacterial Biotransformation [8] | Bacterial Biotransformation [9] | Bacterial Biotransformation [10] | Bacterial Biotransformation [11] | Bacterial Biotransformation [12] | Bacterial Biotransformation [13] | Bacterial Biotransformation [14] | Bacterial Biotransformation [15] | Bacterial Biotransformation [16] | Bacterial Biotransformation [17] | Bacterial Biotransformation [18] | Bacterial Biotransformation [19] | Bacterial Biotransformation [20] | Compound
Compound metabolized | Compound NOT metabolized | Compound NOT metabolized | Compound NOT metabolized | Compound metabolized |  | Compound NOT metabolized | Compound metabolized | Compound NOT metabolized | Compound NOT metabolized | Compound NOT metabolized | Compound NOT metabolized | Compound metabolized | Compound metabolized | Compound metabolized | Compound metabolized | Compound metabolized | Compound NOT metabolized | Compound NOT metabolized | Compound NOT metabolized | CC[C@H](C)C(=O)O[C@H]1C[C@@H](C)C=C2C=C[C@H](C)[C@H](CC[C@@H]3C[C@@H](O)CC(=O)O3)[C@H]21 [LOVASTATIN]
Compound metabolized | Compound metabolized | Compound metabolized | Compound metabolized | Compound metabolized | Compound metabolized | Compound metabolized | Compound metabolized | Compound metabolized | Compound metabolized | Compound metabolized | Compound metabolized |  | Compound metabolized | Compound metabolized | Compound metabolized | Compound metabolized | Compound metabolized | Compound metabolized | Compound metabolized | CC[C@H](C)C(=O)O[C@H]1CCC=C2C=C[C@H](C)[C@H](CC[C@@H]3C[C@@H](O)CC(=O)O3)[C@H]21 [MEVASTATIN]
Compound metabolized | Compound metabolized | Compound metabolized | Compound NOT metabolized | Compound metabolized | Compound metabolized | Compound NOT metabolized | Compound metabolized | Compound metabolized |  | Compound metabolized | Compound metabolized | Compound NOT metabolized | Compound metabolized | Compound metabolized | Compound NOT metabolized | Compound metabolized | Compound metabolized | Compound metabolized | Compound metabolized | Cc1nc2n(c(=O)c1CCN1CCC(c3noc4cc(F)ccc34)CC1)CCCC2O (configuration not stated) [PALIPERIDONE]
Compound metabolized | Compound NOT metabolized | Compound metabolized | Compound metabolized | Compound metabolized | Compound metabolized | Compound metabolized | Compound metabolized | Compound metabolized | Compound metabolized | Compound NOT metabolized | Compound metabolized |  | Compound metabolized | Compound metabolized | Compound metabolized | Compound metabolized | Compound NOT metabolized | Compound metabolized |  | CC(C(=O)O)c1ccc2c(c1)Cc1cccnc1O2 (configuration not stated) [PRANOPROFEN]
Compound metabolized | Compound metabolized | Compound NOT metabolized | Compound NOT metabolized | Compound metabolized |  | Compound NOT metabolized | Compound NOT metabolized | Compound NOT metabolized | Compound metabolized | Compound metabolized | Compound NOT metabolized | Compound NOT metabolized | Compound NOT metabolized | Compound NOT metabolized | Compound NOT metabolized | Compound metabolized | Compound metabolized | Compound NOT metabolized | Compound NOT metabolized | CN1CCN(CC/C=C2/c3ccccc3Sc3ccc(S(=O)(=O)N(C)C)cc32)CC1 [THIOTHIXENE]

Compound | Bacterial Biotransformation [1] | Bacterial Biotransformation [2] | Bacterial Biotransformation [3] | Bacterial Biotransformation [4] | Bacterial Biotransformation [5] | Bacterial Biotransformation [6] | Bacterial Biotransformation [7] | Bacterial Biotransformation [8] | Bacterial Biotransformation [9] | Bacterial Biotransformation [10] | Bacterial Biotransformation [11] | Bacterial Biotransformation [12] | Bacterial Biotransformation [13] | Bacterial Biotransformation [14] | Bacterial Biotransformation [15] | Bacterial Biotransformation [16] | Bacterial Biotransformation [17] | Bacterial Biotransformation [18] | Bacterial Biotransformation [19] | Bacterial Biotransformation [20]
C[N+]12CCC(CC1)C(OC(=O)C(O)(c1ccccc1)c1ccccc1)C2.[Br-] (configuration not stated) [CLIDINIUM BROMIDE] | Compound NOT metabolized | Compound NOT metabolized | Compound NOT metabolized | Compound NOT metabolized | Compound NOT metabolized | Compound NOT metabolized | Compound NOT metabolized | Compound NOT metabolized | Compound NOT metabolized | Compound NOT metabolized | Compound NOT metabolized | Compound NOT metabolized | Compound NOT metabolized | Compound NOT metabolized | Compound NOT metabolized | Compound NOT metabolized | Compound NOT metabolized | Compound NOT metabolized | Compound NOT metabolized | 
COC(=O)[C@H](c1ccccc1Cl)N1CCc2sccc2C1.O=S(=O)(O)O [CLOPIDOGREL BISULFATE] | Compound NOT metabolized | Compound NOT metabolized | Compound NOT metabolized | Compound metabolized | Compound metabolized |  | Compound NOT metabolized | Compound NOT metabolized | Compound NOT metabolized | Compound NOT metabolized | Compound NOT metabolized | Compound NOT metabolized | Compound NOT metabolized | Compound metabolized | Compound NOT metabolized | Compound metabolized | Compound metabolized | Compound NOT metabolized | Compound NOT metabolized | Compound NOT metabolized
